The numbers were not newly measured in paper PMC3294027 (Methods (San Diego, Calif.), 2011), which cites them from elsewhere.

Data set [1] relates to antibody 2D12.5. Particulars: 0.1 M sodium phosphate, pH 7.0, SD in parentheses.
Data set [2] concerns antibody 2D12.5. The following applies: for Half-life / koff: TBS pH 7.4, Avg(SD); for Calc kon: calculated as koff/KD.

Like-named read-outs stand apart in the source and are kept apart here.

With “yttrium S-2-(4-aminobenzyl)-1, 4, 7, 10-tetraazacyclododecanetetraacetate [ABD(Y)]”, in data set [1] (30 °C), the KA is listed as 3.3(±2.1) ×10^8 M^−1, the dissociation constant Kd is 3.1 nM, the ΔG was −11.7(±0.4) kcal/mol and the ΔH is reported as −18.2(±0.5) kcal/mol. The ΔS in data set [1] (30 °C) is on record as −21.5(±2.9) cal/mol-K. Also, in data set [1] (37 °C), the KA was 5.2(±0.9) ×10^8 M^−1, the dissociation constant Kd was 2 nM, the ΔG is −12.4(±0.2) kcal/mol and the ΔH was −20.1(±1.2) kcal/mol. Also, the ΔS in data set [1] (37 °C) was −24.9(±4.1) cal/mol-K. Also, in data set [2] (30°C), the Half-life is 161 ± 13 s, the koff was 4.0(±0.3) x10^−3 s−1 and the Calc kon is 1.3e+06 M⁻¹ s⁻¹. Also, in data set [2] (37°C), the Half-life was 97 ± 9 s, the koff is given as 7.0(±0.7) ×10^−3 s−1 and the Calc kon was 3.5e+06 M⁻¹ s⁻¹.
Consider “cobalt(II) S-2-(4-aminobenzyl)-1, 4, 7, 10-tetraazacyclododecanetetraacetate [ABD(Co)]”, for which, in data set [1] (30 °C), the KA was 8.2(±0.9) ×10^5 M^−1, the Kd was 1200 nM, the ΔG is recorded as −8.2(±0.1) kcal/mol and the ΔH is on record as −12.2(±0.4) kcal/mol. The ΔS in data set [1] (30 °C) is −13.2(±1.3) cal/mol-K. For the same substance, in data set [1] (37 °C), the KA was 7.1(±0.4) ×10^5 M^−1, the Kd was 1400 nM, the ΔG was −8.3(±0.1) kcal/mol and the ΔH is −12.4(±4.8) kcal/mol. The ΔS in data set [1] (37 °C) is listed as −13.3(±4.8) cal/mol-K.

In general, Kd refers to the concentration at which binding is half-saturated.
